In US7998718B2, “Identification and functional characterization of a novel ribosomal S6 protein kinase” (Ludwig Institute for Cancer Research Ltd., priority 1998, dated 2011):

Key:
[1] = tested on: p70β^S6k (p70β-II); assay: S6 kinase assay (40S subunits) on immunoprecipitates of transfected HEK293 cells treated with rapamycin or wortmannin; type: cell-based, human; details: 30 min, HEK293 cells in DMEM with 10% FCS
Protocol: (§1) FIG. 6A-6B. Effects of rapamycin and wortmannin on p70β^S6k and p70α^S6k. Effects of rapamycin and wortmannin on S6 phosphorylation activity of p70α-I or p70β-II. HEK293 cells were transfected with mock cDNA or plasmids containing FLAG-tagged p70β1 or p70β2 isoforms. After 48 h of transfection, cells were treated with vehicle or indicated concentrations of rapamycin or wortmannin for 30 min. After immunoprecipitation with anti-FLAG antibodies, the kinase activity was determined by a p70 S6 kinase assay using 40S subunits as substrates. The proteins of the reaction mixture were separated by SDS-PAGE, transferred onto PVDF membrane and analyzed by autoradiography (FIGS. 6A and 6B, upper panels). Subsequent immunoblotting with anti-FLAG antibody confirmed the expression of p70α-I (FIG. 6A, lower panel) and p70β-II (FIG. 6B, lower panel). A representative of three experiments is shown. ^32P incorporation into S6 was quantified by PhosphorImager and is expressed in arbitrary units (PI units).
Materials and Methods. Treatment of transfected cells with rapamycin or wortmannin was performed as follows: 48 h after transfection, the cells were treated with various concentrations of rapamycin or wortmannin for 30 min.
Results. […] Thus, the effects of both inhibitors on p70β^S6k activity were examined. […]

[2] = tested on: p70α^S6k (p70α-I); assay: as above; type: cell-based, rat; details: 30 min, HEK293 cells in DMEM with 10% FCS
Protocol: as §1
Materials and Methods. Restriction enzymes and DNA modification enzymes were obtained from standard commercial sources and used according to manufacturer's recommendations. Oligonucleotides which were used for sequencing of p70β^S6k and various PCR fragments were synthesized by Genosys or Japan Bioservice, Inc. The pcDNA1 and pcDNA3 mammalian expression vectors were from Invitrogen. […]

[3] = tested on: p70β^S6k (p70β-II isoform); assay: Stimulation of S6 kinase activity in transfected CHO-IR cells; type: cell-based, human; details: serum-starved CHO-IR cells
Protocol: (§2) FIG. 5A. CHO-IR cells were transfected with mock (lane 1) or plasmids containing cDNAs of FLAG-tagged p70α-I (lanes 2 and 3) or FLAG-tagged p70β-II (lanes 4 to 7). After serum starvation for 16 hrs, cells were treated with the vehicle (lanes 2 and 4), 10^−7 M insulin for 10 min (lanes 3 and 5), 15% serum for 10 min (lane 6) or 500 nM TPA for 30 min (lane 7). After cell lysis and subsequent immunoprecipitation with anti-FLAG antibodies, immunoprecipitates were subjected to a p70 S6 kinase assay using 40S subunits as substrates. The reaction mixture was separated by SDS-PAGE, transferred onto PVDF membrane. The membrane was analyzed by autoradiography (upper panel) and then immunoblotted with anti-FLAG antibodies (lower panel). A representative of three experiments is shown. ^32P incorporation into S6 was quantified by Molecular Dynamics. PhosphorImager™ and is expressed in arbitrary units (PI units).
(§3) Materials and Methods. HEK293 cells or CHO-IR cells were transfected with plasmids containing p70α^S6k and p70β^S6k sequences using lipofectAMINE under conditions recommended by the manufacturer (Gibco-BRL). Two days later, transfected cells were frozen in liquid nitrogen and stored until lysis. […]
(§4) Results. […] The activation of p70β^S6k (p70β-II isoform) by insulin was analyzed in CHO-IR cells, which stably over expresses the insulin receptor. […]

[4] = tested on: 40S ribosomal subunit; assay: In vitro S6 kinase assay of activated kinase variants expressed in HEK293 cells; type: biochemical; details: versus wild type p70α^S6k
Protocol: Materials and Method. Activated variants of p70β^S6k and p70α^S6k were made by site-directed mutagenesis. Oligonucleotide primers, specific to the site to be mutated and complimentary to opposite strands of p70β^S6k and p70α^S6k sequences were generated as recommended by manufacturer (Stratagene). Site directed mutagenesis was carried out using pcDNA3/Glu-tag-p70β^S6k and pcDNA3/Glu-tag-p70α^S6k expression vector/plasmids as templates, according to the recommended protocol (Stratagene). All mutations were verified by DNA sequencing. Expression of mutated forms of both kinases was analyzed by immunobloting with anti-Glu-tag antibodies. The activity of normal and mutated forms of both kinases was measured by in vitro S6 kinase assay. 40S ribosomal subunit was used as a substrate in this reaction.
We have generated an activated form of p70β^S6k by substituting putative phosphorylation site Thr 401 with Aspartic acid (Asp) (“p70β^S6k (T401D)”) as shown in FIG. 10.

[5] = tested on: p70α^S6k (p70α-I); assay: Stimulation of S6 kinase activity in transfected CHO-IR cells; type: cell-based, rat; details: 10^-7 M insulin for 10 min, serum-starved CHO-IR cells
Protocol: as §2, §3, §4

[6] = tested on: p70β^S6k (p70β-II isoform); assay: Stimulation of S6 kinase activity by PDGF in transfected PAE-PDGF-R cells; type: cell-based, human; details: 20 ng/ml PDGF BB for 20 min, serum-starved PAE-PDGF-R cells
Protocol: (§5) FIG. 5B. Stimulation of the p70α^S6k and p70β^S6k activity towards ribosomal S6 protein by PDGF in PAE-PDGF-R cells. PAE-PDGF-R cells were transfected with EE-tagged p70α^S6k and p70β^S6k plasmids using lipofectAMINE. After 24 hr, transfected cells were serum-starved for 16 hr and stimulated with 20 ng/ml PDGF BB (Calbiochem) for 20 min. Control cells were treated with the vehicle under the same conditions. After immunoprecipitation with anti-EE antibodies, an in vitro kinase reaction was carried out in the presence of 40S subunits, containing the S6 protein. Reaction mixtures were separated by SDS-PAGE and incorporation of ^32P into S6 protein was measured by PhosphoImager.
(§6) Materials and Methods. HEK293 cells or CHO-IR cells were transfected with plasmids containing p70α^S6k and p70β^S6k sequences using lipofectAMINE under conditions recommended by the manufacturer (Gibco-BRL). Two days later, transfected cells were frozen in liquid nitrogen and stored until lysis. After cell extraction, the lysates were subjected to immunoprecipitation and/or immunoblot analysis. If cells were to be stimulated, they were starved in medium without FCS for 16 h and then stimulated with 10^−7 M insulin for 10 min, 15% FCS for 10 min, 500 nM TPA for 30 min or vehicle alone. PAE-PDGF-R cells were transfected with appropriate plasmids using lipofect under conditions recommended by the manufacturer. […]

[7] = tested on: p70α^S6k; assay: as above; type: cell-based, rat; details: 20 ng/ml PDGF BB for 20 min, serum-starved PAE-PDGF-R cells
Protocol: as §5, §6

CO[C@H]1C[C@@H]2CC[C@@H](C)[C@@](O)(O2)C(=O)C(=O)N2CCCC[C@H]2C(=O)O[C@H]([C@H](C)C[C@@H]2CC[C@@H](O)[C@H](OC)C2)CC(=O)[C@H](C)/C=C(\C)[C@@H](O)[C@@H](OC)C(=O)[C@H](C)C[C@H](C)/C=C/C=C/C=C/1C [rapamycin]
inhibition of p70β^S6k ([1]; 20 nM rapamycin): 46% | inhibition of the p70α^S6k ([2]; 20 nM rapamycin): 92%

CCCCCCCCCCCCCC(=O)O[C@@H]1[C@@H](C)[C@@]2(O)[C@@H](C=C(CO)C[C@]3(O)C(=O)C(C)=C[C@@H]23)[C@@H]2C(C)(C)[C@]12OC(C)=O [TPA]
stimulation of p70β^S6k phosphorylation of ribosomal protein S6 ([3]; 500 nM TPA for 30 min): stimulated

p70α^S6k (T412D): activated version of p70α^S6k made by site-directed mutagenesis
S6 kinase activation compared with wild type kinase [4]: 18 fold

insulin: hormone used to stimulate CHO-IR cells
induction of p70β^S6k activity towards ribosomal S6 protein ([3]; 10^-7 M insulin for 10 min): 2.8 fold | activation of p70α^S6k activity [5]: 3.5 fold

COC[C@H]1OC(=O)c2coc3c2[C@@]1(C)C1=C(C3=O)[C@@H]2CCC(=O)[C@@]2(C)C[C@H]1OC(C)=O [wortmannin]
inhibition of p70β^S6k activity ([1]; 100 nM wortmannin): 62% | inhibition of p70α^S6k activity ([2]; 100 nM wortmannin): 86%

B1: PDGF: PDGF BB growth factor purchased from Calbiochem (protein, UniProt P01127 82-190, looked up)
Platelet-derived growth …: SLGSLTIAEPAMIAECKTRTEVFEISRRLIDRTNANFLVWPPCVEVQRCSGCCNNRNVQCRPTQVQLRPVQVRKIEIVRKKPIFKKATVTLEDHLACKCETVAAARPVT
modifications: Platelet-derived growth factor subunit B
notes: PDGF BB growth factor purchased from Calbiochem
activation of p70β^S6k [6]: 30 fold | activation of p70α^S6k [7]: 3.4 fold
